Experiment [1] addresses KDR kinase (790-1356 AA) (Homo sapiens (Human), UniProt P35968). As to the kind of experiment: Inhibitory activity at KDR kinase (Lance Ultra Ulight-TK assay). The experiment is classed as biochemical. How it is done:
Inhibitory Activity of Compounds at KDR Kinase
• [Experimental method]: Use Lance@Ultra Ulight™-TK assay kit from PerKinElmer to evaluate the inhibitory activity of compounds at KDR kinase. • [Instrument]: PerKinElmer's ENVISION plate reader • [Materials]: Optiplate-384 well plate (PerKinElmer), kinase buffer (50 mM Hepes pH7.5, 0.25 mM EGTA, 2 mM DTT, 0.01% Tween 20, 10 mM Mg^2+, 0.5 mM Mn^2+), KDR kinase (790-1356 AA, Crown Bioscience), KDR kinase substrate (PerKinElmer catalogue # TRF0127-M), Lance@Eu-W1024-anti-phosphotyrosine (PT66) (PerKinElmer, catalogue #AD0068), ATP (Invitrogen), DMSO (Sigma, catalogue #34869), purified water (Millipore, type: Milli-Q). • [Study conditions]: Mix KDR (final concentration: 20 nM) and compound (final DMSO: 0.5%), pre-incubate for 20 min at 30° C.; then add ATP (final concentration: 90 μM) and the substrate (final concentration […]). React for 2 hrs at 30° C. After the reaction, add antibody and reaction for 60 min at 30° C. Read the plate (615 nm, 665 nm), calculate the ratio of the value at 665 nm vs 615 nm and analyze the data. • [Samples]: Compounds in the examples and Sorafenib (positive control) • [Data Analysis]: Use CBIS data analysis software to calculate IC50 values

Experiment [2] has as its system pERK in MDA-MB-231 cells. Kind of experiment: Inhibitory activity at pERK (In Cell Western, MDA-MB-231 cells). The experiment is classed as cell-based. The note with it: read-out: MDA-MB-231 pERK IC50. The method, then:
Inhibitory Activity of Compounds at pERK
When the cells reach 80% confluency, collect cells by trypsinization and centrifugation at 800 rpm for 3 minutes. Resuspend cells with appropriate volume of medium and count cell numbers. Adjust cell concentration to 70000 cells/mL, and split 100 μL cell suspension per well into 96-well plates. Transfer the plates into cell culture incubator (37° C., 5% CO2) and incubate cells overnight. Discard the medium, wash with PBS once, Prepare compound serial dilutions in culture medium with total 8 compound concentrations at 3-fold serial dilutions (the final top concentration starts from 30 μM). Dispense 75 μL DMEM medium (with 0.1% BSA) and 25 μL of each test compound dilution into corresponding wells with DMSO at 0.3% final concentration. Continue incubating cells in cell culture incubator for additional 2 hrs at 37° C., 5% CO2. Discard culture medium, and wash cells once with PBS. Add 100 μL of 4% formaldehyde solution to each well and fix for 20 min. Discard the formaldehyde, then add 100 μL ice-cold 100% methanol at 4° C. for 20 min. Discard methanol, wash with PBS three times. Add to each well 100 μL of 2% BSA solution, seal for 30 min at room temperature. Discard the BSA solution, add to each well 50 μL of the 1st antibody solution (prepared with 2% BSA, 1:250 dilution), incubate at 4° C. overnight. Discard the 1^St antibody solution, wash with PBS four times. Add to each well […] the 2nd antibody solution (prepared with 1% BSA, 1:1000 dilution), incubate at room temperature for 1 hr. Discard the 2nd antibody solution, wash with PBS four times, add to each well 100 μL PI solution (1.5 μM), incubate at room temperature for 30 min. Use Acumen (TPP) to measure the fluorescence. • [Samples]: Compounds in the examples and sorafenib (positive control) • [Data Analysis]: Use CBIS data analysis software to calculate IC50 values

Experiment [3] concerns PLC-PRF-5 cells. As to the kind of experiment: Inhibition of proliferation of PLC-PRF-5 cells (ATPlite). The experiment is classed as cell-based. The note with it: read-out: PLC-PRF-5 cell proliferation IC50. The source says: Inhibitory Activity of Compounds to the Proliferation of PLC-PRF-5 Cells
• [experimental Method]: Use PerKinElmer's ATPlite™ Luminescence ATP Detection Assay System to evaluate the inhibitory activity of compounds to the proliferation of PLC-PRF-5 cells. • [Instruments]: ENVISION plate reader (PerKinElmer) and centrifuge (Thermo Scientific, Sorvall ST16R) • [material]: PLC-PRF-5 cells (ATCC), 96-well plate (Nunc, #165305), DMEM medium (Gibco, #11965-092), PBS (Invitrogen, #10010023), fetal bovine serum (Gibco, #16000044), DMSO (Sigma, #D2650), ATPlite™ Luminescence ATP Detection Assay System (PerkinElmer, #6016949), purified water (Millipore, type: Milli-Q). • [Protocol]: Grow PLC-PRF-5 cells in DMEM supplemented with 10% FBS. When the cells reach 80% confluency, collect cells by trypsinization and centrifugation at 800 rpm for 3 min. Resuspend cells with appropriate volume of medium and count cell numbers. Adjust cell concentration to 50000 cells/mL, and split 160 μL cell suspension per well into 96-well plates. Transfer the plates into cell culture incubator (37° C., 5% CO2) and incubate cells for 2 hrs. Prepare compound serial dilutions in culture medium with total 8 compound concentrations at 3-fold serial dilutions (the final top concentration starts from 30 μM). Dispense 40 μL of each test compound dilution into corresponding wells with DMSO at 0.3% final concentration. Continue incubating cells in cell culture incubator for additional 96 hrs at 37° C., 5% CO2. Discard culture medium, and wash cells once with PBS. Add 50 μL cell lysis buffer per well and shake plates for 5 min at room temperature to ensure complete lysis of cells. Then add 50 μL of substrate solution and shake plates for 1 min at room temperature. Allow the plates to incubate at room temperature for 5 min, followed by recording the luminescence signals using Envision, and subsequent data analysis. • [Samples]: Compounds in the examples and Sorafenib (positive control) • [Data analysis]: Use CBIS data analysis software to calculate IC50 values
(In general: Cellular ATP, detected with luciferase, serves as a proxy for viable cell number.)

Setting [4] is: Homo sapiens, MDA-MB-231, MDA-MB-231 cells.
[5] abbreviates: Homo sapiens, PLC-PRF-5, PLC-PRF-5 cells.

In US9359338B2, “Cyclopropanecarboxamido-substitute aromatic compounds as anti-tumor agents” (Crown Bioscience Inc. (Taiwan), priority 2012, dated 2016) one finds IC50 data, which are given here for 25 compounds.

Like-named read-outs stand apart in the source and are kept apart here.

Sequence of KDR kinase (790-1356 AA) (P35968 790-1356): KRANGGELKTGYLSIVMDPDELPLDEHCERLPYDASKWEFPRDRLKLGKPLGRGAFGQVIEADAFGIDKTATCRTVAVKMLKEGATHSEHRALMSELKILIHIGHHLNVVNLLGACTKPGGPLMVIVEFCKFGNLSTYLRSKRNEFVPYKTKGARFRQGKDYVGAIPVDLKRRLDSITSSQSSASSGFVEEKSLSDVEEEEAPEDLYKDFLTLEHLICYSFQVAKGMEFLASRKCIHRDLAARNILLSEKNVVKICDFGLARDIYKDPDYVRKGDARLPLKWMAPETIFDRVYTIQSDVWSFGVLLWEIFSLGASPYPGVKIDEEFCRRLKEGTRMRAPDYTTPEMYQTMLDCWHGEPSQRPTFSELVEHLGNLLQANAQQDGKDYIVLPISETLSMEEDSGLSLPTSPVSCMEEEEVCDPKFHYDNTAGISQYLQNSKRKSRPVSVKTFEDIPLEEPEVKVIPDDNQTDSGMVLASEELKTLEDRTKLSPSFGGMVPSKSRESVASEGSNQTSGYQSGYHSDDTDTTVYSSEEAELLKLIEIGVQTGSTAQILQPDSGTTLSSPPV

In the case of `O=C(Nc1ccc(Cl)c(C(F)(F)F)c1)Nc1cc(Oc2cc(NC(=O)C3CC3)ncn2)ccc1F` [Exe. 002, N-[6-[3-[[4-chloro-3-(trifluoromethyl)phenyl]carbamoyl-amino]-4-fluoro-phenoxy]pyrimidin-4-yl]cyclopropanecarboxamide], the IC50 in experiment [1] stood at 5.4 nM; in experiment [2] (setting [4]), 15.5 nM; in experiment [3] (setting [5]) it was 3400 nM.
The matching figures for `Cc1cc(Oc2cc(NC(=O)C3CC3)ncn2)c(F)cc1NC(=O)Nc1ccc(Cl)c(C(F)(F)F)c1` [Exe. 003]: 16.7 nM, 87 nM and 11500 nM.
On to `O=C(Nc1cc(F)cc(Oc2cc(NC(=O)C3CC3)ncn2)c1)Nc1ccc(Cl)c(C(F)(F)F)c1` [Exe. 005], for which the values for the IC50 in experiment [1], in experiment [2] (setting [4]) and in experiment [3] (setting [5]) were 27 nM, 40.6 nM and 6000 nM, respectively.
As to `N#Cc1cc(NC(=O)Nc2ccc(Cl)c(C(F)(F)F)c2)ccc1Oc1cc(NC(=O)C2CC2)ncn1` [Exe. 006], the results for the IC50 in experiment [1], in experiment [2] (setting [4]) and in experiment [3] (setting [5]) were 25 nM, 281 nM and 5380 nM, respectively.
On to `Cc1nc(NC(=O)Nc2ccc(Cl)c(C(F)(F)F)c2)ccc1Oc1cc(NC(=O)C2CC2)ncn1` [Exe. 011], for which the results for the IC50 in experiment [1], in experiment [2] (setting [4]) and in experiment [3] (setting [5]) were 13.4 nM, 261 nM and 19500 nM, respectively.
In the case of `O=C(Nc1cccc(Oc2cc(NC(=O)C3CC3)ncn2)c1)Nc1ccc(Cl)c(C(F)(F)F)c1` [Exe. 012], the IC50 in experiment [1] is 9.9 nM; in experiment [2] (setting [4]), 71 nM; in experiment [3] (setting [5]), 10300 nM.
The like results for `O=C(Nc1ccc(F)c(Oc2cc(NC(=O)C3CC3)ncn2)c1)Nc1ccc(Cl)c(C(F)(F)F)c1` [Exe. 013] were, in that order, 14.2 nM, 50 nM and 16100 nM.
As for `Cc1ccc(Oc2cc(NC(=O)C3CC3)ncn2)cc1NC(=O)Nc1ccc(Cl)c(C(F)(F)F)c1` [Exe. 014], the IC50 in experiment [1] stood at 7 nM; in experiment [2] (setting [4]), 48.5 nM; in experiment [3] (setting [5]) it was 8700 nM.
The like results for `O=C(Nc1ccc(Oc2cc(NC(=O)C3CC3)ncn2)nc1)Nc1ccc(Cl)c(C(F)(F)F)c1` [Exe. 015] were, in that order, 4.2 nM, 94 nM and 6500 nM.
Take `Cc1cc(Oc2cc(NC(=O)C3CC3)ncn2)ncc1NC(=O)Nc1ccc(Cl)c(C(F)(F)F)c1` [Exe. 016]: the results for the IC50 in experiment [1], in experiment [2] (setting [4]) and in experiment [3] (setting [5]) were 9.4 nM, 55 nM and 20100 nM, respectively.
As for `Cc1cc(Oc2ccnc(NC(=O)C3CC3)c2)ncc1NC(=O)Nc1ccc(Cl)c(C(F)(F)F)c1` [Exe. 018], the IC50 amounted to 9.4 nM in experiment [1], 4.6 nM in experiment [2] (setting [4]) and 4040 nM in experiment [3] (setting [5]).
Turning to `N#Cc1cc(NC(=O)Nc2ccc(Cl)c(C(F)(F)F)c2)ccc1Oc1ccnc(NC(=O)C2CC2)c1` [Exe. 026], the IC50 was 18.2 nM in experiment [1], 39 nM in experiment [2] (setting [4]) and 900 nM in experiment [3] (setting [5]).
Consider `O=C(Nc1ccc(Oc2ccnc(NC(=O)C3CC3)c2)c(F)c1)Nc1ccc(Cl)c(C(F)(F)F)c1` [Exe. 027], for which the IC50 was determined as 66.5 nM in experiment [2] (MDA-MB-231 cells) and 2390 nM in experiment [3] (PLC-PRF-5 cells).
For `Cc1cc(Oc2cc(NC(=O)C3CC3)ncn2)ccc1NC(=O)Nc1cc(NC(C)C)cc(C(F)(F)F)c1` [Exe. 032, N-[6-[4-[[3-(isopropylamino)-5-(trifluoromethyl)phenyl]carbamoylamino]-3-methyl-phenoxy]pyrimidin-4-yl]cyclopropanecarboxamide], the IC50 in experiment [1] is 26 nM; in experiment [2] (setting [4]), 115 nM; in experiment [3] (setting [5]), 20000 nM.
Turning to `CC(F)(F)c1cncc(NC(=O)Nc2ccc(Oc3ccnc(NC(=O)C4CC4)c3)cc2F)c1` [Exe. 033], the IC50 in experiment [1] was 5.6 nM; in experiment [2] (setting [4]), 5 nM; in experiment [3] (setting [5]), 35 nM.
The like results for `CN1CCC(c2ccc(NC(=O)Nc3ccc(Oc4ccnc(NC(=O)C5CC5)c4)c(F)c3)cc2C(F)(F)F)CC1` [Exe. 036] were, in that order, 15.6 nM, 290 nM and 2400 nM.
For the compound `O=C(Nc1cc(OC2CCOC2)cc(C(F)(F)F)c1)Nc1ccc(Oc2ccnc(NC(=O)C3CC3)c2)c(F)c1` (centres unmarked) [Exe. 039], the IC50 in experiment [1] was 14.2 nM; in experiment [2] (setting [4]), 54.4 nM; in experiment [3] (setting [5]) it was 500 nM.
In the case of `CN1CCC(C(=O)c2cc(NC(=O)Nc3ccc(Oc4ccnc(NC(=O)C5CC5)c4)c(F)c3)cc(C(F)(F)F)c2)CC1` [Exe. 040], the figures for the IC50 in experiment [1], in experiment [2] (setting [4]) and in experiment [3] (setting [5]) were 15.2 nM, 134 nM and 640 nM, respectively.
As for `Nc1nnc(-c2cc(NC(=O)Nc3ccc(Oc4ccnc(NC(=O)C5CC5)c4)c(F)c3)cc(C(F)(F)F)c2)o1` [Exe. 042], the IC50 is 11.5 nM in experiment [1], 94 nM in experiment [2] (setting [4]) and 3560 nM in experiment [3] (setting [5]).
In the case of `COCC(=O)Nc1cc(NC(=O)Nc2ccc(Oc3ccnc(NC(=O)C4CC4)c3)c(F)c2)cc(C(F)(F)F)c1` [Exe. 043], the IC50 in experiment [1] is 18.1 nM; in experiment [2] (setting [4]) it was 30 nM; in experiment [3] (setting [5]), 604 nM.
`CC(c1cc(NC(=O)Nc2ccc(Oc3ccnc(NC(=O)C4CC4)c3)c(F)c2)cc(C(F)(F)F)c1)N1CCN(C)CC1` (centres unmarked) [Exe. 045]: the IC50 in experiment [1] worked out at 15.4 nM; in experiment [2] (setting [4]), 40 nM; in experiment [3] (setting [5]) it was 108 nM.
Regarding `O=C(Nc1cc(N2CCC(F)CC2)cc(C(F)(F)F)c1)Nc1ccc(Oc2ccnc(NC(=O)C3CC3)c2)c(F)c1` [Exe. 046], the IC50 in experiment [1] is 16.6 nM; in experiment [2] (setting [4]) it was 58.2 nM; in experiment [3] (setting [5]), 640 nM.
With `O=C(Nc1cc(NC2CC2)cc(C(F)(F)F)c1)Nc1ccc(Oc2ccnc(NC(=O)C3CC3)c2)c(F)c1` [Exe. 049], the IC50 in experiment [1] came to 9.9 nM; in experiment [2] (setting [4]), 51.3 nM; in experiment [3] (setting [5]), 642 nM.
With `CC(c1cc(NC(=O)Nc2ccc(Oc3ccnc(NC(=O)C4CC4)c3)c(F)c2)cc(C(F)(F)F)c1)N1CCNCC1` (centres unmarked) [Exe. 067, N-[4-[2-fluoro-4-[[3-(1-piperazin-1-ylethyl)-5-(trifluoromethyl)phenyl]carbamoylamino]phenoxy]-2-pyridyl]cyclopropanecarboxamide], the IC50 in experiment [2] (setting [4]) worked out at 75.9 nM; in experiment [3] (setting [5]), 235 nM.
For `Cc1cc(Oc2cc(NC(=O)C3CC3)ncn2)ccc1NC(=O)Nc1cc(C2CCN(C)CC2)cc(C(F)(F)F)c1` [Exe. 073], the IC50 in experiment [3] (setting [5]) stood at 2970 nM.
